Experimental data from patent US20240309028A1, “PHOSPHOLIPID COMPOUNDS AND METHODS OF MAKING AND USING THE SAME” (Gilead Sciences, Inc., priority 2023, published 2024).

Experiments:
Type in all cases: cell-based
[1] = tested on: Human Rhinovirus 16 (HRV16); experiment: H1-HeLa HRV-CTG EC50, HRV16; conditions: Rhinovirus A, 96 h; H1-HeLa cells, HRV16, MOI 0.25, 4 days, Celltiter-Glo; read-out: EC50 H1-HeLa_HRV16_HRV-CTG 384-well Assay (per Ex. Z)
Description: (§1) Example Z: H1-HeLa HRV-CTG EC50
(§2) H1-Hela cell line (ATCC, Manassas, VA, Cat #CRL-1958) was maintained in Dulbecco's […] Essential Medium (DMEM) (Corning, New York, NY, Cat #15-018 CM) supplemented with 10% fetal bovine serum (FBS) (Hyclone, Logan, UT, Cat #SH30071-03), and 1× Penicillin-Streptomycin-L-Glutamine (Corning, New York, NY, Cat #30-009-CI). Cells were passaged 2 times per week to maintain sub-confluent densities and were used for experiments at passage 5-30. The Human Rhinovirus 1B (HRVIB) (ATCC, Manassas, VA, Cat #VR-1645), Human Rhinovirus 14 (HRV14) (ATCC, Manassas, VA, Cat #VR-284), and Human Rhinovirus 16 (HRV16) (ATCC, Manassas, VA, Cat #BR-283) was obtained through ATCC. Viral infection was monitored by determining viability of H1-HeLa cells as described below.
(§3) Test molecules are prepared in 100% DMSO in 384-well polypropylene plates (Greiner, Monroe, NC, Cat #784201) with 8 compounds per plate in grouped replicates of 4 at 10 serially diluted concentrations (1:3). […]
(§4) The test compounds were spotted to 384-well assay plates (Greiner, Monroe, NC, Cat #781091) at 200 nL per well using an Echo acoustic dispenser (Labcyte, Sunnyvale, CA). […] 40 μL per well of Celltiter-Glo reagent was added and the plates were incubated at room temperature for 15 minutes before reading the luminescence signal on an En Vision multimode plate reader (Perkin Elmer, Waltham, MA). […]

[2] = tested on: Human Rhinovirus 1B (HRVIB); experiment: H1-HeLa HRV-CTG EC50, HRV1B; conditions: Rhinovirus A, 96 h, H1-HeLa cells, MOI 0.5, 4 days, Celltiter-Glo, read-out: EC50 H1-HeLa_HRV1B_HRV-CTG 384-well Assay (per Ex. Z)
Description: as §1, §2, §3, §4

RSV strain A2 = experiment: RSV Cellomics assay for RSV A2 antiviral activity (EC50-RSV-Hep2-96-Cellomics); conditions: human respiratory syncytial virus, HEp-2, 72 h; Hep2 cells, RSV strain A2, MOI=0.05, 3 days, RSV F protein immunofluorescence; read-out: EC50-RSV-HEp2-96-Cellomics Example B1
Description: Example B1: RSV Cellomics Assay for RSV A2 Antiviral Activity (EC50-RSV-Hep2-96-Cellomics)
8×10^3 Hep2 cells are seeded into 96 well plates in 100 μL of media (DMEM supplemented with GlutaMAX, 10% FBS and Pen/Strep) and briefly spun at 50×g for 1 minute to attach cells. Cells were further allowed to attach with overnight incubation at 37° C.+5% CO2. The following day, the media was aspirated and 100 μL of fresh DMEM media containing 2% FBS was added. A three-fold dilution series of compounds of interest are then added to the plate using the Tecan D300e dispenser and the plate is normalized to the well with the highest volume of DMSO. The cells are next infected by adding 100 μL of media containing RSV strain A2 at an MOI=0.05 and the plates incubated for 3 days at 37° C.+5% CO2. Following the incubation, the media is removed, and the cells are washed once with 250 μL PBS and fixed with 250 μL ice-cold 100% methanol for 10 minutes at 4 C. The methanol is then removed and the plates air dried for 5 minutes and then washed once with 250 μL PBS to remove any residual methanol. The wells are then blocked 60 μL/well of BlockAid (B10710, Thermo-Fisher) for 1 hour at RT on rocker at which point the blocking buffer is carefully aspirated. Primary antibody against the RSV F protein (MAB 858-1) is then diluted 1:2000 in SuperBlock (37515, Thermo Fisher) and 50 μL of the primary antibody solution is added to each well. The plates are incubated at room temperature for 1 hour with gentle agitation and then washed with 250 μL of PBS-Tween 3 times. A goat anti-mouse AlexaFluor 647 conjugated secondary antibody (Sigma, A21235) is then diluted 1:2000 and Hoescht 33342 (H3570) at 1:1000 in SuperBlock and 50 μL added to the wells for 1 hour at 37° C. After incubation the antibody solution is aspirated, and the wells are then washed with 250 μL of PBS-Tween 3 times. To keep cells from drying out, 100 μL of PBS is added to each well and the plates are sealed with black plate seal. Fluorescence at the 647 nm wavelength is measured using a Cellomics CellInsight CX7 machine. Compound activity is determined as a percentage of the % positive cells (or average intensity) compared to DMSO treated RSV infected well controls following subtraction of uninfected controls. The EC50 values are then calculated using nonlinear regression analysis in GraphPad Prism.

SMILES	EC50 [1]	EC50 [2]	EC50 (RSV strain A2)
N#Cc1cc(F)cc(CO[C@H](COCCCCCCCCCCCCCCCCCC(F)(F)F)COP(=O)(O)OC[C@@]2(C#N)O[C@@H](c3ccc4c(N)ncnn34)[C@H](O)[C@@H]2O)c1 [Compound 1, ((2R,3S,4R,5S)-5-(4-aminopyrrolo[2,1-f][1,2,4]triazin-7-yl)-2-cyano-3,4-dihydroxytetrahydrofuran-2-yl)methyl ((R)-2-((3-cyano-5-fluorobenzyl)oxy)-3-((18,18,18-trifluorooctadecyl)oxy)propyl) hydrogen phosphate]	34 nM	12 nM	76 nM
N#Cc1cc(F)cc(CO[C@H](CCCCCCCCCCCCCCCCCCC(F)(F)F)COP(=O)(O)OC[C@@]2(C#N)O[C@@H](c3ccc4c(N)ncnn34)[C@H](O)[C@@H]2O)c1 [Compound 2, ((2R,3S,4R,5S)-5-(4-aminopyrrolo[2,1-f][1,2,4]triazin-7-yl)-2-cyano-3,4-dihydroxytetrahydrofuran-2-yl)methyl ((R)-2-((3-cyano-5-fluorobenzyl)oxy)-21,21,21-trifluorohenicosyl) hydrogen phosphate]	91 nM	62 nM	241 nM
